# Where “and” joins values, the source holds several entries; their conditions need not be identical. Identical values can stand only once.
# Columns and labels:
# [1] = biological target: T1, α-Synuclein (αS) aggregation (Homo sapiens, UniProt P37840); test: Thioflavin T (ThT) dye-based αS aggregation assay (de novo); type: biochemical; conditions: for ThT intensity relative to Synuclein alone (=1), Average / ThT intensity relative to Synuclein alone (=1), Trial 1-3: 100 µM αS, four days, equimolar; for ThT intensity relative to Synuclein alone (=1), Trial 1-3 / Relative ThT intensity of αS aggregation: individual trials; for remaining activity at 100 µM: 96 h, pH 6.5, 100 μM αS, 1×PBS pH 6.5, four days, ligand:αS equimolar, read-out: ThT signal/intensity relative to αS alone (100%); for Relative ThT intensity of αS aggregation, Average / Relative ThT intensity of αS aggregation: Synuclein alone about 1; for ThT intensity (raw), individual trials: αS aggregation after four days, NS132 derivatives equimolar (Fig. 2r)
# T1 construct: made in house; host or cells: E. coli BL21(DE3)
# Description: We used a 2D FAST approach in OPs to identify potent antagonists of the aggregation of αS. In this approach, we start with a library of monopyridyls with different functional groups. The library of monopyridyls was synthesized using 2-chloro-6-methyl-3-nitropyridine as a common precursor, which was treated with primary alcohols with diverse side chain functionalities via a one-pot reaction (Fig. 1B, a and see Supplementary information for synthetic details). […] We selected the side chains containing hydrophobic, polar, positively charged, and negatively charged functional groups, which mimic the side chains of the amino acids (Fig. 1C). […] The monopyridyl library was screened against the aggregation of 100 μM αS at an equimolar ratio using Thioflavin T (ThT) dye-based aggregation assay (Fig. 1B, b). […] The chloro-dipyridyl was reacted with a library of primary amines/thiols to synthesize a library of dipyridyls (Fig. 1B, e) using a one-pot reaction. […] However, a few dipyridyls required column chromatography to separate them from the starting material side chains because of their very high boiling point (7 out of 21 dipyridyls required column, Supplementary Fig. 1). […]
# Aggregation Kinetics were measured according to a previously described protocol. […] The solutions were placed in a ThermoMixer (Eppendorf, Hamberg, Germany) at 37 °C with constant shaking at 1300 rpm (rpm). At different time points, 5 μL aliquots of each αS solution were added to 95 μL PBS containing 50 μM Thioflavin T (ThT) dye in a Costar black 96 well plate (Corning Inc., Kennebunk, ME). ThT fluorescence intensity was measured (λex = 450 nm and λem = 490 nm) on an Infinite M200PRO plate reader (Tecan, Männedorf, Switzerland), and plotted against time to give a sigmoidal curve typical of amyloid aggregation. For the single point ThT aggregation, 100 μM αS, in the absence and presence of ligands, was aggregated under the described conditions and the ThT fluorescence was reported at 96 h. The reported ThT intensity values are the average of each experiment conducted in triplicate, with the error bars representing the standard deviations or standard error of the mean (s.e.m.) as described in the main manuscript.
# αS aggregation = biological target: T2, αS aggregation (Homo sapiens, UniProt P37840); test: SDS-PAGE gel shift assay of soluble and insoluble αS fractions; type: biochemical; conditions: for αS band intensity, Total / Total (αS, SDS-PAGE gel shift), Trial 1-3: individual trials; for Total (αS, SDS-PAGE gel shift), Average: average of 3 trials; for Total (αS, SDS-PAGE gel shift), Average / Total (αS, SDS-PAGE gel shift), Trial 1-3: sheet S9D
# T2 construct: made in house; host or cells: E. coli BL21(DE3)
# From the text: The inhibition of αS aggregation by NS41 was also confirmed by TEM images, which show an abundance (Supplementary Fig. 3a) and low amount (Supplementary Fig. 3b) of αS fibers in the absence and presence of NS41, respectively. We used SDS-PAGE (Sodium dodecyl sulfate polyacrylamide gel electrophoresis) as a complementary assay to validate ThT results and to further characterize the antagonist activity of the monopyridyls against αS aggregation. We used a total of four monopyridyls with varying antagonist activity against αS aggregation for the SDS-PAGE assay. The solutions of αS (±monopyridyls) were centrifuged and the soluble and insoluble fractions were subjected to SDS-PAGE analysis as reported earlier (Fig. 2d, Supplementary Fig. 4a, see details in methods section). The band intensities of the gels in SDS-PAGE assay were quantified using ImageJ software. In the absence of ligands, ~12% of αS was found in the soluble fraction and the rest was found in the insoluble fraction (Fig. 2d, Supplementary Fig. 4a, b). In the presence of NS41 at molar ratios of 1:1 and 2:1 (NS41:αS), 48% and 73% of αS protein were found in the soluble fraction, respectively, and the rest of αS protein was found in the insoluble fraction (Fig. 2d, Supplementary Fig. 4a, b). […] The antagonist activity of the monopyridyls corroborated well from both ThT and the SDS-PAGE assays (Fig. 2a–d, Supplementary Fig. 4a, b). The higher the antagonist activity of monopyridyls against αS aggregation, the lower the ThT intensity and the higher the amount of αS remained in the soluble fraction (Fig. 2a–d, Supplementary Fig. 4a, b). […] It is important to note that NS41 contains a carboxyl (COOH) functional group side chain. […] We have also shown in that work that the foldamer binds to the N-terminus of αS because of its negatively charged COOH functional group interaction with the positively charged lysine residues of αS[24]. […] Additionally, we have also shown that the OPs with the COOH functional group are very effective inhibitors of aggregation of other amyloid proteins that contain lysine amino acid via the formation of salt bridges[30]–[34].
# An αS solution (100 µM) was prepared in PBS with or without ligands and shaken ([…], 37 °C) until the fluorescence plateaued, as observed using the ThT aggregation assay, indicative of the aggregation of αS as a control (four days for most experiments unless otherwise mentioned). The solutions were separated into soluble and insoluble fractions by centrifugation at 22,000 × g for 20 min. The fractions were diluted in 2×Laemmli protein sample loading buffer (Containing 2.1% SDS, Bio-rad, Hercules, CA), boiled at 95 °C for 5 min, and ran on a 12% Mini-PROTEAN precast protein gel (Bio-rad, Hercules, CA). The gel was visualized using ChemiDoc MP Imaging System (Bio-rad, Hercules, CA) and band intensity was quantified using Image Lab image acquisition and analysis software (Bio-rad, Hercules, CA). Densitometry values were averaged from three technical replicates and reported with the error bars representing their standard deviations.
smiles,measurement,setting,value
Cc1ccc(NC(=O)c2ccc([N+](=O)[O-])c(NCCc3c[nH]c4ccccc34)n2)c(OCC(=O)O)n1 [NS72],"ThT intensity relative to Synuclein alone (=1), Average",[1],0.08383
same,"ThT intensity relative to Synuclein alone (=1), Trial 1-3",[1],0.08532 and 0.05997 and 0.1062
Cc1ccc(NC(=O)c2ccc(NC(=O)c3ccc([N+](=O)[O-])c(Cl)n3)c(NCC3CCCCC3)n2)c(OCC(=O)O)n1 [NS122],"αS band intensity, Total, Average",αS aggregation; sheet S7B,100
same,"αS band intensity, Total",αS aggregation; sheet S7B,101.8 and 101.7 and 96.5
same,remaining activity at 100 µM,[1],30%
same,"Relative ThT intensity of αS aggregation, Average",[1]; sheet S7A,0.339
same,Relative ThT intensity of αS aggregation,[1]; sheet S7A,0.3017 and 0.3699 and 0.3455
same,"ThT intensity (raw), individual trials",[1],5423 and 5518 and 5332
Cc1ccc(NC(=O)c2ccc(NC(=O)c3ccc([N+](=O)[O-])c(NCC4CCCCC4)n3)c(NCC3CCCCC3)n2)c(OCC(=O)O)n1 [NS126],"ThT intensity relative to Synuclein alone (=1), Average",[1],0.4588
same,"ThT intensity relative to Synuclein alone (=1), Trial 1-3",[1],0.4925 and 0.4832 and 0.4007
same,remaining activity at 100 µM,[1],45.9%
Cc1ccc(NC(=O)c2ccc(NC(=O)c3ccc([N+](=O)[O-])c(NCCc4c[nH]c5ccccc45)n3)c(NCC3CCCCC3)n2)c(OCC(=O)OC(C)(C)C)n1 [NS132-P],amount of αS in the insoluble fraction,"αS aggregation; 100 µM αS, four days, equimolar",84%
same,"Total (αS, SDS-PAGE gel shift), Average",αS aggregation; NS132-P 0.5 eq.,0.8767
same,"Total (αS, SDS-PAGE gel shift), Trial 1-3",αS aggregation; NS132-P 0.5 eq.,0.83 and 0.85 and 0.95
same,"Total (αS, SDS-PAGE gel shift), Average",αS aggregation; NS132-P 1.0 eq.,1.02
same,"Total (αS, SDS-PAGE gel shift), Trial 1-3",αS aggregation; NS132-P 1.0 eq.,1.069 and 1.01 and 0.98
same,remaining activity at 100 µM,[1],80%
same,"ThT intensity (raw), individual trials",[1],15241 and 16712 and 15019
Cc1ccc(NC(=O)c2ccc([N+](=O)[O-])c(NCCc3ccc(O)cc3)n2)c(OCC(=O)O)n1 [NS160],"αS band intensity, Total, Average",αS aggregation; sheet S5B,100
same,"αS band intensity, Total",αS aggregation; sheet S5B,103.4 and 101 and 95.6
same,"ThT intensity relative to Synuclein alone (=1), Average",[1],0.7268
same,"ThT intensity relative to Synuclein alone (=1), Trial 1-3",[1],0.8429 and 0.6915 and 0.6459
same,"Relative ThT intensity of αS aggregation, Average",[1]; sheet S5A,0.7268
same,Relative ThT intensity of αS aggregation,[1]; sheet S5A,0.8429 and 0.6915 and 0.6459
Cc1ccc(NC(=O)c2ccc(NC(=O)c3ccc([N+](=O)[O-])c(NCCc4ccc(O)cc4)n3)c(NCC3CCCCC3)n2)c(OCC(=O)O)n1 [NS168],"ThT intensity relative to Synuclein alone (=1), Average",[1],0.02443
same,"ThT intensity relative to Synuclein alone (=1), Trial 1-3",[1],0.02302 and 0.02387 and 0.02641
same,remaining activity at 100 µM,[1],2.7%
Cc1ccc([N+](=O)[O-])c(OCC2CCCCC2)n1 [RD222],"αS band intensity, Total, Average",αS aggregation; sheet S4B,100
same,"αS band intensity, Total",αS aggregation; sheet S4B,97.5 and 99 and 103.5
same,"ThT intensity relative to Synuclein alone (=1), Average",[1],0.6644
same,"ThT intensity relative to Synuclein alone (=1), Trial 1-3",[1],0.6754 and 0.635 and 0.6826
